Data on one molecule can be found in patent publication US8119660B2, “Small-molecule inhibitors of the androgen receptor” (The Regents of the University of California, priority 2007, dated 2012).

The test system of one data set is LNCaP cells. The experiment in a line: Cell proliferation (DNA content, DAPI), LNCaP. In kind it is cell-based, human. The conditions noted are these: 3 nM DHT, seven days, PP 100 nM, HH 100 nM, BiC 1 μM. The text has this:
(§1) LN-AR cells were created by retroviral infection of a high-expressing AR vector into LNCaP cells, and proliferate independent of androgen in cell culture, unlike their parental line (Chen, C. D., et al., Molecular determinants of resistance to antiandrogen therapy. Nat Med, 2004. 10(1): p. 33-9). HEK293 cells were used as a control. Cells were transferred to charcoal-stripped media two days before they were split and plated in quadruplicate at a density of approximately 20,000 cells/well in 48-well plates. […] Media were changed every day, using a single preparation to ensure consistent compound concentrations. Proliferation was determined by measuring the DNA content of the cells in each well. Each day, the cells in four wells were fixed in 100% cold methanol, followed by staining for 5 min at RT with 0.2 ng/mL 4′,6-diamidino-2-phenylindole (DAPI) in PBS. The cells were washed once in PBS, then read on a fluorescence plate reader using 365/439 excitation/emission wavelengths. LAPC4 and LNCaP cells proliferated to a much greater degree in the presence of DHT, while LN-AR cells proliferated in the presence and absence of DHT.

The test system of the next data set is LAPC4 cells. Briefly: Cell proliferation (DNA content, DAPI), LAPC4. Particulars: LAPC4, 3 nM DHT, seven days; PP 100 nM, HH 100 nM, BiC 1 μM. In kind it is cell-based, human.
Text: as §1

The next data set deals with LN-AR cells. Briefly: Cell proliferation (DNA content, DAPI), LN-AR. The conditions noted are these: seven days, PP 100 nM, HH 100 nM, BiC 1 μM. In kind it is cell-based, human.
Text: as §1

For another data set, the system named is HEK293 cells. The experiment in a line: Cell proliferation (DNA content, DAPI), HEK293 control. In kind it is cell-based. The conditions noted are these: HEK293, seven days; PP 100 nM, HH 100 nM, BiC 1 μM.
Text: as §1

A further data set concerns prostate glands of mice. The experiment in a line: Prostate weight in treated male mice. Format: in vivo. The conditions noted are these: 5 times per week for four weeks, BiC 100 mg/kg PO, PP 1 mg/kg IP, or the combination. The protocol: FIG. 7. […] As a positive control, nine mice were treated with castration for four weeks. Prostate glands were harvested and wet weights determined. […] Error bars represent the standard error of the mean (S.E.M.).
Animals were treated 5 times per week for four weeks. At the end of the study period, animals were sacrificed and prostate tissue weighed. After weighing, the tissue was divided in half for pathological and genetic studies. […] (FIG. 7).

Entries after “also recorded” stand apart in the source; their conditions may differ.

Turning to `Cc1cc(/C=C/c2ccc3cc(N(C)C)ccc3[n+]2C)c(C)n1-c1ccccc1` [PP, pyrvinium pamoate], the “Inhibition of cell growth” value in the data set on LNCaP cells was “able to inhibit the growth of all four cell lines; also recorded: exhibited growth-inhibitory properties”; in the data set with LAPC4 cells it was “able to inhibit the growth of all four cell lines”. Besides, the “Inhibition of androgen-independent cell growth” value in the data set with LN-AR cells is “able to inhibit the growth of all four cell lines; also recorded: blocked growth”. Also, in the data set with HEK293 cells, the “Non-specific growth inhibition of control cells” value is “Neither compound exhibited non-specific growth inhibition”. Besides, the “Reduction of prostate weight” value with prostate glands of mice is given as “did not produce a statistically significant effect; also recorded: did not significantly reduce prostate size”.
